Laboratory results reported in PubChem BioAssay (NCI).
Values joined by “and” are separate entries in the source; they are usually repeats but may differ in a detail not shown here. Equal entries are not always repeated.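 Interpolation was linear, between the two tested concentrations surrounding the appropriate level; five concentrations were tested over 48 hours in 96-well plates. Abbreviation: GI50, concentration required for 50% inhibition of growth. TGI is the concentration that stops growth completely.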

How the values were obtained:
Assay in all cases: NCI tumour cell line growth inhibition, 48 h
U251 CNS = system: U251 CNS
UACC-62 melanoma = system: UACC-62 melanoma
SNB-19 CNS = system: SNB-19 CNS
SF-268 CNS = system: SF-268 CNS
HCT-15 colon = system: HCT-15 colon
BT-549 breast = system: BT-549 breast
M14 melanoma = system: M14 melanoma
NCI-H460 lung = system: NCI-H460 lung
UACC-257 melanoma = system: UACC-257 melanoma
NCI/ADR-RES ovarian = system: NCI/ADR-RES ovarian
OVCAR-8 ovarian = system: OVCAR-8 ovarian
MOLT-4 leukemia = system: MOLT-4 leukemia
PC-3 prostate = system: PC-3 prostate
OVCAR-4 ovarian = system: OVCAR-4 ovarian
CAKI-1 renal = system: CAKI-1 renal
NCI-H23 lung = system: NCI-H23 lung
OVCAR-5 ovarian = system: OVCAR-5 ovarian
IGROV1 ovarian = system: IGROV1 ovarian
HT29 colon = system: HT29 colon
K-562 leukemia = system: K-562 leukemia
HCC-2998 colon = system: HCC-2998 colon
UO-31 renal = system: UO-31 renal
HOP-62 NSCLC = system: HOP-62 NSCLC
SN12C renal = system: SN12C renal
ACHN renal = system: ACHN renal
T-47D breast = system: T-47D breast
MDA-MB-231 breast = system: MDA-MB-231 breast
HL-60(TB) leukemia = system: HL-60(TB) leukemia
SNB-75 CNS = system: SNB-75 CNS

For `CC1=C2C[C@H]3[C@@H](CC=C4C[C@@H](O)CC[C@@]43C)[C@@H]2CC[C@]12O[C@@H]1C[C@H](C)CN[C@H]1[C@H]2C`, the GI50 (U251 CNS) was 7.96 µM and 18.6 µM, the TGI (U251 CNS) was 18.3 µM and 39.6 µM and the GI50 (UACC-62 melanoma) was 24.6 µM and 21.1 µM. The TGI (UACC-62 melanoma) was 50 µM and 43.7 µM, the GI50 (SNB-19 CNS) was 22.6 µM and 20.7 µM and the TGI (SNB-19 CNS) was 50 µM and 52.6 µM. For the same compound, the GI50 (SF-268 CNS) was 21.2 µM and 23.7 µM, the TGI (SF-268 CNS) was 50 µM and 50.9 µM and the GI50 (HCT-15 colon) was 12.6 µM and 22.3 µM. For the same compound, the TGI (HCT-15 colon) was 49.4 µM and > 100 µM, the GI50 (BT-549 breast) was 31 µM and 52.1 µM and the TGI (BT-549 breast) was 50 µM and > 100 µM. For the same compound, the GI50 (M14 melanoma) was > 50 µM and 19.6 µM, the TGI (M14 melanoma) was > 50 µM and 44.1 µM and the GI50 (NCI-H460 lung) was 21.8 µM and 19.9 µM. The TGI (NCI-H460 lung) was 50 µM and 44.4 µM, the GI50 (UACC-257 melanoma) was 20.3 µM and 17.3 µM and the TGI (UACC-257 melanoma) was 50 µM and 33.1 µM. The GI50 (NCI/ADR-RES ovarian) was 38.5 µM and 20.3 µM, the TGI (NCI/ADR-RES ovarian) was 50 µM and 47.5 µM and the GI50 (OVCAR-8 ovarian) was 11.6 µM and 20.2 µM. The TGI (OVCAR-8 ovarian) was 50 µM and 48.5 µM, the GI50 (MOLT-4 leukemia) was 17.7 µM and 20.5 µM and the TGI (MOLT-4 leukemia) was 50 µM and 58.6 µM. The GI50 (PC-3 prostate) was 22.1 µM and 20.2 µM, the TGI (PC-3 prostate) was 50 µM and 59.6 µM and the GI50 (OVCAR-4 ovarian) was 32.1 µM and 18.8 µM. For the same compound, the TGI (OVCAR-4 ovarian) was 50 µM and 37.3 µM, the GI50 (CAKI-1 renal) was 29.2 µM and 20 µM and the TGI (CAKI-1 renal) was 50 µM and 44.5 µM. The GI50 (NCI-H23 lung) was 29 µM and 29.7 µM, the TGI (NCI-H23 lung) was 50 µM and > 100 µM and the GI50 (OVCAR-5 ovarian) was 11.9 µM and 29.4 µM. The TGI (OVCAR-5 ovarian) was 50 µM and 89.6 µM, the GI50 (IGROV1 ovarian) was 40.5 µM and 17.5 µM and the TGI (IGROV1 ovarian) was 50 µM and 38.9 µM. The GI50 (HT29 colon) was 26.2 µM, the TGI (HT29 colon) was 50 µM and the GI50 (K-562 leukemia) was 9.4 µM and 15.9 µM. For the same compound, the TGI (K-562 leukemia) was 34.7 µM and 40.2 µM, the GI50 (HCC-2998 colon) was 16.9 µM and 21.6 µM and the TGI (HCC-2998 colon) was 50 µM and 39.4 µM. For the same compound, the GI50 (UO-31 renal) was 11.5 µM and 19 µM, the TGI (UO-31 renal) was 35.9 µM and 37.2 µM and the GI50 (HOP-62 NSCLC) was 17.8 µM and 24.5 µM. For the same compound, the TGI (HOP-62 NSCLC) was 50 µM and 68.6 µM, the GI50 (SN12C renal) was 25.6 µM and 18.3 µM and the TGI (SN12C renal) was 50 µM and 47.4 µM. For the same compound, the GI50 (ACHN renal) was 10.4 µM and 18.7 µM, the TGI (ACHN renal) was 22.3 µM and 41.4 µM and the GI50 (T-47D breast) was 13.3 µM and 16.7 µM. For the same compound, the TGI (T-47D breast) was 32.8 µM and 34.9 µM, the GI50 (MDA-MB-231 breast) was 17.8 µM and 23.7 µM and the TGI (MDA-MB-231 breast) was 42.6 µM and 49.7 µM. For the same compound, the GI50 (HL-60(TB) leukemia) was 11.5 µM and 15.7 µM, the TGI (HL-60(TB) leukemia) was 50 µM and 55.1 µM and the GI50 (SNB-75 CNS) was > 50 µM and 18.8 µM. The TGI (SNB-75 CNS) was > 50 µM and 42.7 µM.
